Results: patent US12319655B2, “RAF kinase inhibitors and methods of use thereof” (Deciphera Pharmaceuticals, LLC, priority 2021, dated 2025)

What was measured:
[1] = target: B-Raf (V600E) (SEQ. ID NO: 4) kinase (Homo sapiens (Human), UniProt P15056, V600E); assay: Biochemical Assay for B-Raf (V600E) (1); settings: Table J, BRAF V600E, assay version (1); read-out: BRAF VE (1) IC50
Procedure, shortened: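 Coupled pyruvate kinase/lactate dehydrogenase assay: 0.03 nM B-Raf V600E, 30.1 nM MEK, 1 mM ATP, pH 7.5 Tris/MgCl2 buffer, 1% DMSO. NADH oxidation followed at 340 nm for 6 h at 30 °C; rate from 3–4 h converted to percent inhibition, IC50 by four-parameter fit.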

A375 cells = assay: A375 Cell Proliferation Assay (1); type: cell-based; settings: Homo sapiens, A-375
Procedure, shortened: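 Resazurin fluorescence (excitation 540 nm, emission 600 nm, after a further 5-6 h) gave IC50s from triplicate compound dilution series.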

H2405 cells = assay: H2405 Cell Proliferation Assay (1); type: cell-based; settings: Homo sapiens, NCI-H2405
Experimental: H2405 Cell Proliferation Assay (1)
H2405 cells (catalog #CRL-5994) are obtained from the American Type Culture Collect (ATTC, Manassas, VA). Briefly, cells were grown in RPMI 1640 supplemented with 5% characterized fetal bovine serum (Invitrogen, Carlsbad, CA) and 1% Penicillin/Streptomycin/L-Glutamine at 37° C., 5% CO2, and 95% humidity. Cells are expanded until reaching 70-95% confluency at which point they are sub-cultured or harvested for assay use. A serial dilution of test compound is dispensed into a 96-well black clear bottom plate in triplicate. Three thousand cells are added per well in 200 μL complete growth medium in the 96-well plate. Plates are incubated for 67-72 h at 37° C., 5% CO2, and 95% humidity. At the end of the incubation, 40 μL of a 440 μM solution of resazurin (Sigma, St. Louis, MO) in PBS is added to each well of the plate and plates are incubated for an additional 5-6 h at 37° C., 5% CO2, and 95% humidity. Plates are read on a Synergy2 or equivalent reader (Biotek, Winooski VT) using an excitation of 540 nm and an emission of 600 nm. Data is analyzed using Prism software (GraphPad, San Diego, CA) to calculate IC50 values.

WM3928 cells = assay: WM3928 Cell Proliferation Assay (1); type: cell-based
Experimental: WM3928 Cell Proliferation Assay (1)
WM3928 cells (#WM3928-01-0001) are obtained from Rockland Immunochemicals Inc (Gilbertsville, PA). Briefly, cells were grown in MCDB 153 medium (Sigma, #M7403, St. Louis, MO) supplemented with 20% Leibovitz's L-15 (ThermoFisher #11415-064, Waltham, MA), 2% heat inactivated fetal bovine serum (ThermoFisher, #A3840001, Waltham, MA), 5 μg/mL Insulin (Bovine Pancreas) (Sigma, #I0516, St. Louis, MO), 1.68 mM Calcium Chloride (Sigma, #C-34006, St. Louis, MO) and 1% Penicillin/Streptomycin/L-Glutamine (ThermoFisher #10378016, Waltham, MA) at 37° C., 5% CO2, and 95% humidity. Cells are expanded until reaching 70-95% confluency at which point they are subcultured or harvested for assay use. A serial dilution of test compound is dispensed into a 96-well black clear bottom plate in triplicate. Three thousand cells are added per well in 200 μL complete growth medium in the 96-well plate. Plates are incubated for 67-72 hours at 37° C., 5% CO2, and 95% humidity. At the end of the incubation, 40 μL of a 440 μM solution of resazurin (Sigma, #199303, St. Louis, MO) in PBS is added to each well of the plate and plates are incubated for an additional 6-7 hours at 37° C., 5% CO2, and 95% humidity. Plates are read on a Synergy2 or equivalent reader (Biotek, Winooski VT) using an excitation of 540 nm and an emission of 600 nm. Data is analyzed using Prism software (GraphPad, San Diego, CA) to calculate IC50 values.

Chain of B-Raf (V600E) (SEQ. ID NO: 4) kinase (P15056 416-766 V600E): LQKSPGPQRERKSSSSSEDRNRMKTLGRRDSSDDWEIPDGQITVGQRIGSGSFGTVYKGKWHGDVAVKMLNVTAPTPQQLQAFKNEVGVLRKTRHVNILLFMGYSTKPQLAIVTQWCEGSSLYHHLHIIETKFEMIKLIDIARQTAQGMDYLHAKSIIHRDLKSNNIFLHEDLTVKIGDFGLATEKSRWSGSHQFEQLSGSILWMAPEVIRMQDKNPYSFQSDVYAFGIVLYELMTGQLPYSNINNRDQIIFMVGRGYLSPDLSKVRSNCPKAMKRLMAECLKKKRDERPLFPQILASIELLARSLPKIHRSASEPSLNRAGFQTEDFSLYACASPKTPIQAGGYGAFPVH

SMILES | IC50 [1] [nM] | IC50 (A375 cells) [nM] | IC50 (H2405 cells) [nM] | IC50 (WM3928 cells) [nM]
CC(=O)Nc1cc(-c2cc(-c3cc(NC(=O)c4ccnc(C(F)(F)F)c4)ccc3C)ccn2)ccn1 [Example 6] | ≤ 100 | ≤ 100 | ≤ 100 | 
Cc1ncc(NC(=O)c2ccnc(C(C)(C)C#N)c2)cc1-c1cccc(-c2ccnc3[nH]cnc23)c1 [Example 111] | ≤ 100 | 1000 to 10000 | 1000 to 10000 | 1000 to 10000
Cc1ccc(NC(=O)c2ccnc(C(C)(C)C#N)c2)cc1-c1cncc(-c2ccnc(NC(=O)C3CC3)c2)n1 [Example 112] | ≤ 100 | ≤ 100 | ≤ 100 | ≤ 100
Cc1ccc(NC(=O)c2ccnc(C(F)(F)F)c2)cc1-c1ccnc(-c2ccnc(N)c2)n1 [Example 122] | ≤ 100 | 1000 to 10000 | 1000 to 10000 | 1000 to 10000
CC(=O)Nc1cc(-c2cncc(-c3cc(NC(=O)c4cc(C(F)(F)F)ccn4)ccc3C)n2)ccn1 [Example 124] | ≤ 100 | ≤ 100 | ≤ 100 | ≤ 100
Cc1ncc(NC(=O)c2ccnc(C(C)(C)C#N)c2)cc1-c1cccc(-c2ncnc3[nH]ncc23)c1 [Example 129] | ≤ 100 | 500 to 1000 | 100 to 500 | 100 to 500
COCC(=O)Nc1cc(-c2cccc(-c3cc(NC(=O)c4ccnc(C(F)(F)F)c4)cnc3C)n2)ccn1 [Example 130] | ≤ 100 | 1000 to 10000 | 100 to 500 | 
Cc1ncc(NC(=O)c2ccnc(C3CC3)c2)cc1-c1cccc(-c2ncnc3[nH]ncc23)c1 [Example 131] | ≤ 100 | 1000 to 10000 | 1000 to 10000 | 1000 to 10000
Cc1ccc(NC(=O)c2ccnc(C(C)(C)C#N)c2)cc1-c1cccc(-c2ccnc3[nH]ncc23)c1 [Example 134] | ≤ 100 | 100 to 500 | 100 to 500 | ≤ 100
Cc1ccc(NC(=O)c2ccnc(C(C)(C)C#N)c2)cc1-c1ccnc(-c2ccnc(C(=O)NC3CC3)c2)c1 [Example 162] | ≤ 100 | 100 to 500 | 100 to 500 | 100 to 500
CNC(=O)c1cc(-c2nccc(-c3cc(NC(=O)c4ccnc(C(C)(C)C#N)c4)c(F)cc3C)n2)ccn1 [Example 166] | ≤ 100 | 100 to 500 | 500 to 1000 | 
CC(=O)Nc1cc(-c2nccc(-c3cc(NC(=O)c4cnnc(C5CC5)c4)ccc3C)n2)ccn1 [Example 168] | ≤ 100 | 500 to 1000 |  | 500 to 1000
Cc1ncc(NC(=O)c2ccnc(C(C)(C)C#N)c2)cc1-c1cccc(-c2ccnc(NC(=O)C3CC3)c2)n1 [Example 172] | ≤ 100 | ≤ 100 |  | ≤ 100
CNC(=O)c1cc(-c2cc(-c3cc(NC(=O)c4ccnc(C(C)(C)C#N)c4)c(F)cc3C)ccn2)ccn1 [Example 176] | ≤ 100 | ≤ 100 | 100 to 500 | ≤ 100
CNC(=O)c1cc(-c2ccnc(-c3cc(NC(=O)c4ccnc(C(C)(C)C#N)c4)ccc3C)n2)ccn1 [Example 177] | ≤ 100 | 100 to 500 |  | ≤ 100
Cc1cc(F)c(NC(=O)c2ccnc(C(C)(C)C#N)c2)cc1-c1ccnc(-c2ccnc(NC(=O)C3CC3)c2)n1 [Example 179] | ≤ 100 | ≤ 100 |  | ≤ 100
Cc1ncc(NC(=O)c2ccnc(C(C)(C)C#N)c2)cc1-c1cccc(-c2cc(NC(=O)C3CC3)ncn2)c1 [Example 181] | ≤ 100 | ≤ 100 | ≤ 100 | ≤ 100
CCC(=O)Nc1cc(-c2cccc(-c3cc(NC(=O)c4ccnc(C(C)(C)C#N)c4)cnc3C)n2)ccn1 [Example 182] | ≤ 100 | 100 to 500 |  | ≤ 100
Cc1ccc(NC(=O)c2ccnc(C3CC3)c2)cc1-c1cncc(-c2ccnc(NC(=O)C3CC3)c2)n1 [Example 184] | ≤ 100 | ≤ 100 |  | ≤ 100

Continued, in another order:

IC50 [1] [nM] | IC50 (A375 cells) [nM] | IC50 (H2405 cells) [nM] | SMILES | IC50 (WM3928 cells) [nM]
≤ 100 | ≤ 100 | ≤ 100 | CC(=O)Nc1cc(-c2ccnc(-c3cc(NC(=O)c4ccnc(C(C)(C)C#N)c4)ccc3C)n2)ccn1 [Example 103] | ≤ 100
≤ 100 | ≤ 100 | ≤ 100 | Cc1cc(F)c(NC(=O)c2ccnc(C(C)(C)C#N)c2)cc1-c1ccnc(-c2ccnc(NC=O)c2)c1 [Example 104] | ≤ 100
≤ 100 | ≤ 100 | ≤ 100 | Cc1ccc(NC(=O)c2cccc(C(C)(C)C#N)c2)cc1-c1cc(OCCO)nc(-c2ccnc3c2CC(=O)N3)c1 [Example 108] | ≤ 100
≤ 100 | ≤ 100 | ≤ 100 | CC(=O)Nc1cc(-c2cncc(-c3cc(NC(=O)c4cccc(C(C)(C)C#N)c4)ccc3C)n2)ccn1 [Example 125] | ≤ 100
≤ 100 | 1000 to 10000 | 500 to 1000 | Cc1ccc(NC(=O)c2ccnc(C(C)(C)C#N)c2)cc1-c1cccc(-c2ccnc3[nH]ccc23)c1 [Example 133] | 
≤ 100 | 100 to 500 |  | CNc1cc(-c2cccc(-c3cc(NC(=O)c4ccnc(C(C)(C)C#N)c4)ccc3C)c2)ncn1 [Example 160] | ≤ 100
≤ 100 | ≤ 100 |  | Cc1ccc(NC(=O)c2ccnc(C(C)(C)C#N)c2)cc1-c1cncc(-c2ccnc(NC=O)c2)n1 [Example 161] | ≤ 100
≤ 100 | ≤ 100 | ≤ 100 | CNC(=O)c1cc(-c2cc(-c3cc(NC(=O)c4ccnc(C(C)(C)C#N)c4)ccc3C)cc(C3CC3)n2)ccn1 [Example 163] | ≤ 100
≤ 100 | ≤ 100 |  | Cc1ccc(NC(=O)c2ccnc(C(C)(C)C#N)c2)cc1-c1nccc(-c2ccnc(NC(=O)C3CC3)c2)n1 [Example 169] | ≤ 100
≤ 100 | ≤ 100 | 100 to 500 | CNC(=O)c1cc(-c2cccc(-c3cc(NC(=O)c4ccnc(C(C)(C)C#N)c4)ccc3C)c2)ncn1 [Example 171] | ≤ 100
≤ 100 | ≤ 100 |  | Cc1ccc(NC(=O)c2cccc(C(C)(C)C#N)c2)cc1-c1cccc(-c2cc(NC(=O)C3CC3)ncn2)c1 [Example 174] | ≤ 100
≤ 100 | 100 to 500 |  | CNC(=O)c1cc(-c2nccc(-c3cc(NC(=O)c4ccnc(C5(C#N)CC5)c4)ccc3C)n2)ccn1 [Example 175] | ≤ 100
≤ 100 | 100 to 500 | 100 to 500 | CNC(=O)c1cc(-c2cc(-c3cc(NC(=O)c4ccnc(C5(C#N)CC5)c4)ccc3C)ncn2)ccn1 [Example 178] | ≤ 100
≤ 100 | ≤ 100 | ≤ 100 | Cc1ccc(NC(=O)c2ccnc(C3(C#N)CC3)c2)cc1-c1ccnc(-c2ccnc(NC(=O)C3CC3)c2)n1 [Example 180] | ≤ 100
